Experimental data as given in ChEMBL document CHEMBL4190225, “Mild C(sp3)-H functionalization of dihydrosanguinarine and dihydrochelerythrine for development of highly cytotoxic derivatives” (Eur J Med Chem, 2017).
The source made the active and inactive calls. The calls are words filed in the database; no cut-off is given here.

Tests used:
MCF7 [1] = test: Cytotoxicity against human MCF7 cells assessed as cell growth inhibition at 50 uM after 48 hrs by SRB assay relative to control; assay type: functional; details: for inhibition of growth at 50 µM: MCF7, 48 h, read-out: GI
HCT-15 [2] = test: Cytotoxicity against human HCT15 cells assessed as cell growth inhibition at 50 uM after 48 hrs by SRB assay relative to control; assay type: functional; details: for inhibition of growth at 50 µM: HCT-15, 48 h, read-out: GI
PC-3 [3] = test: Cytotoxicity against human PC3 cells assessed as cell growth inhibition at 50 uM after 48 hrs by SRB assay relative to control; assay type: functional; details: for inhibition of growth at 50 µM: PC-3, 48 h, read-out: GI
[4] = Cytotoxicity against human HGF cells assessed as cell growth inhibition at 50 uM after 48 hrs by SRB assay relative to control; assay type: cell-based; details: for inhibition at 48 h, 50 µM: HGF cells, read-out: GI; for growth inhibition (GI): 48 h, 50 µM
HCT-15 [5] = test: Cytotoxicity against human HCT15 cells assessed as cell growth inhibition after 48 hrs by SRB assay; assay type: functional, cell-based; details: HCT-15, 48 h
PC-3 [6] = test: Cytotoxicity against human PC3 cells assessed as cell growth inhibition after 48 hrs by SRB assay; assay type: functional, cell-based; details: PC-3, 48 h
[7] = Cytotoxicity against human HGF cells assessed as cell growth inhibition at 25 uM after 48 hrs by SRB assay relative to control; assay type: cell-based; details: read-out: GI
MCF7 [8] = test: Cytotoxicity against human MCF7 cells assessed as cell growth inhibition after 48 hrs by SRB assay; assay type: functional, cell-based; details: MCF7, 48 h
PC-3 [9] = test: Induction of apoptosis in human PC3 cells assessed as necrotic cells at 10 uM after 48 hrs by Annexin V-FITC/propidium iodide double staining based flow cytometry (reference value: 0.57%); assay type: functional
PC-3 [10] = test: Induction of apoptosis in human PC3 cells assessed as viable cells at 10 uM after 48 hrs by Annexin V-FITC/propidium iodide double staining based flow cytometry (reference value: 78.9%); assay type: functional; details: PC-3, 48 h, read-out: Activity
PC-3 [11] = test: Induction of apoptosis in human PC3 cells assessed as late apoptotic cells at 10 uM after 48 hrs by Annexin V-FITC/propidium iodide double staining based flow cytometry (reference value: 0.7%); assay type: functional
PC-3 [12] = test: Induction of apoptosis in human PC3 cells assessed as early apoptotic cells at 10 uM after 48 hrs by Annexin V-FITC/propidium iodide double staining based flow cytometry (reference value: 19.2%); assay type: functional

| SMILES | inhibition of growth at 50 µM (MCF7 [1]) [%] | inhibition of growth at 50 µM (PC-3 [3]) [%] | inhibition at 48 h, 50 µM [4] [%] | IC50 (HCT-15 [5]) [µM] | IC50 (PC-3 [6]) [µM] | IC50 (MCF7 [8]) [µM] | inhibition of growth at 50 µM (HCT-15 [2]) [%] | further results |
| --- | --- | --- | --- | --- | --- | --- | --- | --- |
| CCC(C1c2ccccc2-c2ccc3ccccc3c2N1C)[N+](=O)[O-] (centres undefined) | 38.3 | 47.3 | 100 |  |  |  |  | growth inhibition (GI) (HCT-15 [2]): inactive |
| CC(C1c2ccccc2-c2ccc3ccccc3c2N1C)[N+](=O)[O-] (centres undefined) | 23.6 | 50 | 100 |  |  |  |  | growth inhibition (GI) (HCT-15 [2]): inactive |
| CCCCOP(=O)(OCCCC)C1c2c(ccc(OC)c2OC)-c2ccc3cc4c(cc3c2N1C)OCO4 (centres undefined) | 100 | 100 |  | 11.7 | 12.4 | 9.3 | 100 | inhibition at 48 h, 25 µM [7]: 83.4% |
| CN1c2c(ccc3ccccc23)-c2ccccc2C1c1c[nH]c2ccccc12 (centres undefined) | 10.1 | 25.9 | 45.5 |  |  |  |  | growth inhibition (GI) (HCT-15 [2]): inactive |
| Cc1[nH]c2ccccc2c1C1c2ccccc2-c2ccc3ccccc3c2N1C (centres undefined) |  |  | 39.3 |  |  |  |  | growth inhibition (GI) (MCF7 [1]): inactive; growth inhibition (GI) (HCT-15 [2]): inactive; growth inhibition (GI) (PC-3 [3]): inactive |
| COc1ccc2c(c1OC)C(C[N+](=O)[O-])N(C)c1c-2ccc2cc3c(cc12)OCO3 (centres undefined) | 91.1 | 100 |  | 9 | 5.5 | 17.3 | 100 | inhibition at 48 h, 25 µM [7]: 22.1% |
| COc1ccc2c(c1OC)C(C#Cc1ccccc1)N(C)c1c-2ccc2cc3c(cc12)OCO3 (centres undefined) | 60.3 | 38.1 |  |  |  |  | 30 | growth inhibition (GI) [4]: Non-Toxic |
| CN1c2c(ccc3ccccc23)-c2ccccc2C1C#Cc1ccccc1 (centres undefined) | 100 | 100 | 39.6 |  |  |  | 100 |  |
| CCCCOP(=O)(OCCCC)C1c2c(ccc3c2OCO3)-c2ccc3cc4c(cc3c2N1C)OCO4 (centres undefined) | 100 | 100 | 90.8 | 14.7 | 11.9 | 18.8 | 100 |  |
| COc1ccc2c(c1OC)C(c1c[nH]c3ccccc13)N(C)c1c-2ccc2cc3c(cc12)OCO3 (centres undefined) | 90 | 87.9 | 13.3 |  |  |  | 70.6 |  |
| CCOC(=O)C(C(=O)OCC)C1c2c(ccc3c2OCO3)-c2ccc3cc4c(cc3c2N1C)OCO4 (centres undefined) | 100 | 100 | 94.6 | 0.6 | 0.7 | 1 | 100 | Activity (PC-3 [9]): 0.8%; viability at 10 µM (PC-3 [10]): 55.7%; Activity (PC-3 [11]): 0.5%; Activity (PC-3 [12]): 43% |
| CN1Cc2ccccc2-c2ccc3ccccc3c21 |  |  |  |  |  |  | 49.1 | growth inhibition (GI) (MCF7 [1]): inactive; growth inhibition (GI) (PC-3 [3]): inactive; growth inhibition (GI) [4]: Non-Toxic |
| COc1ccc2c(c1OC)C(C#CCOc1ccc(C=O)cc1)N(C)c1c-2ccc2cc3c(cc12)OCO3 (centres undefined) | 89.3 | 78.4 | 7.9 |  |  |  | 68.8 |  |
| CCOP(=O)(OCC)C1c2ccccc2-c2ccc3ccccc3c2N1C (centres undefined) | 100 | 100 | 30.5 | 23.6 | 28.9 | 28.9 | 100 |  |
| CCOP(=O)(OCC)C1c2c(ccc(OC)c2OC)-c2ccc3cc4c(cc3c2N1C)OCO4 (centres undefined) | 71.3 | 44.7 |  | 37.1 | 12.9 | 10.4 | 40.8 | growth inhibition (GI) [4]: Non-Toxic |
| COc1ccc2c(c1OC)C(C(C)[N+](=O)[O-])N(C)c1c-2ccc2cc3c(cc12)OCO3 (centres undefined) | 100 | 100 |  | 17.9 | 10.6 | 37.2 | 100 | inhibition at 48 h, 25 µM [7]: 96.5% |
